According to patent US9149455B2, “Methods of treating melanoma” (Abraxis BioScience, LLC, priority 2012, dated 2015):

Columns and labels:
[1] = Phase 3 study of Nab-paclitaxel versus dacarbazine, treatment-related adverse events; type: in vivo, human
[2] = system: stage IV cutaneous metastatic malignant melanoma; experiment: Phase 3 study of Nab-paclitaxel versus dacarbazine in chemotherapy-naive patients, efficacy; type: in vivo, human
Excerpt: Chemotherapy-naïve patients with stage IV cutaneous metastatic malignant melanoma were enrolled. The patients had Eastern Cooperative Oncology Group (ECOG) PS 0-1, measurable disease, and lactate dehydrogenase (LDH) levels ≦2.0× Upper Limit of Normal (ULN), and had no current brain metastases.
The primary efficacy endpoint was progression-free survival (“PFS”) based on a blinded radiology assessment (according to Response Evaluation Criteria in Solid Tumors (“RECIST”) v1.0). The secondary efficacy endpoint was overall survival (“OS”). Other endpoints included objective response rate (“ORR”), disease control rate (“DCR”), and safety/tolerability.

metastatic melanoma = settings: advanced melanoma; Finn L et al., BMC Medicine 2012; cited from earlier work
[3] = Grade ≧3 treatment-related adverse events

Compound: CN(C)/N=N/c1[nH]cnc1C(N)=O [Dacarbazine, dacarbazine]
- Alopecia ([1]; Grade ≧3 TRAE): 0%
- Anemia ([1]; Grade ≧3 TRAE): 5%
- Fatigue ([1]; Grade ≧3 TRAE): 2%
- Leukopenia ([1]; Grade ≧3 TRAE): 7%
- Lymphocytopenia ([1]; Grade ≧3 TRAE): 11%
- Neutropenia ([1]; Grade ≧3 TRAE): 10%
- Peripheral Neuropathy ([1]; Grade ≧3 TRAE): 0%
- Thrombocytopenia ([1]; Grade ≧3 TRAE): 6%
- Patients with at least 1 TRAE [1, 3]: 28%
- Patients with at least 1 serious TRAE [1, 3]: 7%
- Median OS (interim) ([2]; BRAF V600E Mutation subgroup): 11.2 months
- Median PFS ([2]; BRAF V600E Mutation subgroup): 3.5 months
- Median OS (interim) ([2]; BRAF Wild Type subgroup): 11.1 months
- Median PFS ([2]; BRAF Wild Type subgroup): 2.5 months
- Median OS (interim) ([2]; BRAF status Unknown subgroup): 9.9 months
- Median PFS ([2]; BRAF status Unknown subgroup): 2.2 months
- progression free survival (PFS) by independent radiology review ([2]; all patients, Nab-paclitaxel 150 mg/m^2 iv days 1, 8, 15 of 28-day cycle vs dacarbazine 1000 mg/m^2 iv day 1 of 21-day cycle, RECIST v1.0, P=0.044): 2.5 months
- Median OS, planned interim analysis ([2]; all patients, at time of PFS analysis, 64% of patients had an event): 10.7 months
- Best Response: Not Evaluable ([2]; blinded radiology assessment): 25%
- Best Response: PD ([2]; blinded radiology assessment): 48%
- Best Response: SD ([2]; blinded radiology assessment): 16%
- DCR ([2]; blinded radiology assessment): 27%
- ORR ([2]; blinded radiology assessment): 11%
- PR (listed under DCR) ([2]; blinded radiology assessment): 11%
- Best Response: PR ([2]; blinded radiology assessment, confirmed): 11%

Compound: CCCS(=O)(=O)Nc1ccc(F)c(C(=O)c2c[nH]c3ncc(-c4ccc(Cl)cc4)cc23)c1F [vemurafenib]
- toxicity (metastatic melanoma): low toxicity

Compound: Ipilmumab: anti-CTLA-4 antibody, FDA approved 2011 for advanced melanoma
- improvement of median survival time (metastatic melanoma): two
